{
  "source": "patent US6486173B2",
  "about": "“5-HT7 receptor antagonists” (Bristol-Myers Squibb Pharma Company, priority 1998, dated 2002)",
  "key": {"5-HT7 receptor": {"target": "5-HT7 receptor (Homo sapiens, UniProt P34969)", "sequence (P34969 whole entry)": "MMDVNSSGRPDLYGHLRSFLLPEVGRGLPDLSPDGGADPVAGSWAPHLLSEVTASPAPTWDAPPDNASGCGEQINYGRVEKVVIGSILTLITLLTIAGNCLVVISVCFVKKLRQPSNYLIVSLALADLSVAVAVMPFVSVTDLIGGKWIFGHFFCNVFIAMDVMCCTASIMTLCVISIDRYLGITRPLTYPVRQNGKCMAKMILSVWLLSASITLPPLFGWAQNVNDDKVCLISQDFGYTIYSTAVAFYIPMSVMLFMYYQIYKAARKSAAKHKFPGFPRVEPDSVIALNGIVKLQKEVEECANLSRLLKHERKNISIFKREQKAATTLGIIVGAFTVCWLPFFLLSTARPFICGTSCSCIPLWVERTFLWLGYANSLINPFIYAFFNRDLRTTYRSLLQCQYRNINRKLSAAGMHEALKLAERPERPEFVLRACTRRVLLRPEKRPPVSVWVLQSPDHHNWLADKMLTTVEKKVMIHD", "conditions": "cited from earlier work"}, "[1]": {"conditions": "background statement, profile consistent across species"}},
  "note": "Like-named read-outs stand apart in the source and are kept apart here.",
  "data": [
    {"molecule": "Fc1ccc(C2(CCCN3Cc4ccccc4C3)OCCO2)cc1.O=C(O)/C=C\\C(=O)O", "values": [
      {"measurement": "melting point", "value": "141 to 142", "unit": "°C"}
    ]},
    {"molecule": "O=C(CCCN1CCc2ccccc2C1)c1ccc(F)cc1.O=C(O)/C=C\\C(=O)O", "values": [
      {"measurement": "melting point", "value": "129 to 130", "unit": "°C"}
    ]},
    {"molecule": "O=C(CCCN1Cc2cc3ccccc3cc2C1)c1ccc(F)cc1.O=C(O)/C=C\\C(=O)O", "values": [
      {"measurement": "melting point", "value": "157 to 158", "unit": "°C"}
    ]},
    {"molecule": "O=C(CCCN1CCc2ccccc2C1)c1ccncc1.O=C(O)/C=C\\C(=O)O", "values": [
      {"measurement": "melting point", "value": "108 to 109", "unit": "°C"}
    ]},
    {"molecule": "O=C(CCCN1Cc2cccc3cccc(c23)C1)c1ccc(F)cc1.O=C(O)/C=C\\C(=O)O", "values": [
      {"measurement": "melting point", "value": "151 to 155", "unit": "°C"}
    ]},
    {"molecule": "O=C(CCCN1CCc2ccccc2C1)c1cccs1.O=C(O)/C=C\\C(=O)O", "values": [
      {"measurement": "melting point", "value": "154 to 155", "unit": "°C"}
    ]},
    {"molecule": "COc1cc2c(cc1OC)CN(CCCC(=O)c1ccc(F)cc1)CC2.O=C(O)/C=C\\C(=O)O", "values": [
      {"measurement": "melting point", "value": "144 to 146", "unit": "°C"}
    ]},
    {"molecule": "O=C(O)/C=C\\C(=O)O.O=c1[nH]c2ccccc2n1CCCN1CCc2ccccc2C1", "values": [
      {"measurement": "melting point", "value": "153 to 154", "unit": "°C"}
    ]},
    {"molecule": "O=C(O)/C=C\\C(=O)O.c1ccc(-c2cc(CN3CCc4ccccc4C3)on2)cc1", "values": [
      {"measurement": "melting point", "value": "190 to 192", "unit": "°C"}
    ]},
    {"molecule": "Fc1ccc(OCCCN2Cc3ccccc3C2)cc1.O=C(O)/C=C\\C(=O)O", "values": [
      {"measurement": "melting point", "value": "115 to 117", "unit": "°C"}
    ]},
    {"molecule": "Cl.Fc1ccc(SCCCN2CCc3ccccc3C2)cc1", "values": [
      {"measurement": "melting point", "value": "171 to 173", "unit": "°C"}
    ]},
    {"molecule": "Cl.Fc1ccc(SCCCN2Cc3ccccc3C2)cc1", "values": [
      {"measurement": "melting point", "value": "125 to 126", "unit": "°C"}
    ]},
    {"molecule": "O=C(O)/C=C\\C(=O)O.O=S(=O)(CCCN1Cc2ccccc2C1)c1ccc(F)cc1", "values": [
      {"measurement": "melting point", "value": "151 to 152", "unit": "°C"}
    ]},
    {"molecule": "Cl.O=S(=O)(CCCN1CCc2ccccc2C1)c1ccc(F)cc1", "values": [
      {"measurement": "melting point", "value": "212 to 215", "unit": "°C"}
    ]},
    {"molecule": "Cc1ccc(C2(CCCN3Cc4ccccc4C3)OCCO2)cc1.O=C(O)/C=C\\C(=O)O", "values": [
      {"measurement": "melting point", "value": "159 to 161 °C (dec.)"}
    ]},
    {"molecule": "Cl.O=S(=O)(c1ccc(F)cc1)N1CCC(N2CCc3ccccc3C2)CC1", "values": [
      {"measurement": "melting point", "value": "> 240", "unit": "°C"}
    ]},
    {"molecule": "Fc1ccc(C2(CCCN3CCc4ccccc4C3)OCCO2)cc1.O=C(O)/C=C\\C(=O)O", "values": [
      {"measurement": "melting point", "value": "160 to 162", "unit": "°C"}
    ]},
    {"molecule": "O=C(O)/C=C\\C(=O)O.OC(CCCN1Cc2ccccc2C1)c1ccc(F)cc1", "note": "(stereo not drawn)", "values": [
      {"measurement": "melting point", "value": "113 to 114", "unit": "°C"}
    ]},
    {"molecule": "5-HT [Example 5-HT]", "values": [
      {"measurement": "5-HT7 receptor affinity", "setting": "5-HT7 receptor; [1]", "value": "high 5-HT7 receptor affinity"}
    ]},
    {"molecule": "O=C(CCCN1CC[C@@H]2CCCC[C@H]2C1)c1ccc(F)cc1.O=C(O)/C=C\\C(=O)O", "note": "(racemic)", "values": [
      {"measurement": "melting point", "value": "157 to 158", "unit": "°C"}
    ]},
    {"molecule": "Fc1ccc(C2=NOC(CN3CCc4ccccc4C3)C2)cc1.O=C(O)/C=C\\C(=O)O", "note": "(racemic)", "values": [
      {"measurement": "melting point", "value": "153 to 155", "unit": "°C"}
    ]},
    {"molecule": "COc1ccc2[nH]cc(CCN)c2c1", "note": "[Example 5-MeOT, 5-MeOT]", "values": [
      {"measurement": "5-HT7 receptor affinity", "setting": "5-HT7 receptor", "value": "high 5-HT7 receptor affinity"}
    ]},
    {"molecule": "CCCN(CCC)C1CCc2cccc(O)c2C1", "note": "(stereo not drawn) [Example 8-OHDPAT, 8-OHDPAT]", "values": [
      {"measurement": "5-HT7 receptor affinity", "setting": "5-HT7 receptor", "value": "moderate affinity"}
    ]},
    {"molecule": "O=C1CC2(CCCC2)CC(=O)N1CCCCN1CCN(c2ncccn2)CC1", "note": "[buspirone]", "values": [
      {"measurement": "5-HT7 receptor affinity", "setting": "5-HT7 receptor; [1]", "value": "low affinity"}
    ]},
    {"molecule": "CC(C)NCC(O)COc1cccc2[nH]ccc12", "note": "(stereo not drawn) [pindolol]", "values": [
      {"measurement": "5-HT7 receptor affinity", "setting": "5-HT7 receptor", "value": "low affinity"}
    ]},
    {"molecule": "Cc1nc2sccn2c(=O)c1CCN1CCC(=C(c2ccc(F)cc2)c2ccc(F)cc2)CC1", "note": "[ritanserin]", "values": [
      {"measurement": "5-HT7 receptor affinity", "setting": "5-HT7 receptor; [1]", "value": "moderate affinity"}
    ]},
    {"molecule": "CNS(=O)(=O)Cc1ccc2[nH]cc(CCN(C)C)c2c1", "note": "[sumatriptan]", "values": [
      {"measurement": "5-HT7 receptor affinity", "setting": "5-HT7 receptor; [1]", "value": "low affinity"}
    ]}
  ]
}
